# Experimental data published in ChEMBL document CHEMBL1138055, “Tetraoxane antimalarials and their reaction with Fe(II)” (J Med Chem, 2006).
# Values joined by “and” are separate entries in the source; they are usually repeats but may differ in a detail not shown here. Equal entries are not always repeated.
# What was measured:
# Plasmodium falciparum [1] = system: Plasmodium falciparum
# Description: (§1) Antimalarial activity against Plasmodium falciparum D6
# Plasmodium falciparum [2] = system: Plasmodium falciparum; remark: listed apart in the source
# Description: (§2) Antimalarial activity against Plasmodium falciparum W2
# Plasmodium falciparum [3] = system: Plasmodium falciparum; remark: listed apart in the source
# Description: (§3) Antimalarial activity against Plasmodium falciparum TM91C235
# Plasmodium falciparum [4] = test: microbe, parasite or virus in culture; conditions: W2
# Description: as §2
# Plasmodium falciparum [5] = test: microbe, parasite or virus in culture; conditions: TM91C235
# Description: as §3
# 786-0 = test: Antiproliferative activity against human 786-0 cell line after 48 hrs; format: functional; conditions: 786-0, 48 h
# LOX IMVI = test: Antiproliferative activity against human LOX IMVI cell line after 48 hrs; format: functional
# Mus musculus [6] = organism: Mus musculus; test: Intrinsic clearance in mouse liver microsomes; format: ADME, Microsome
# Liver microsomes = test: Intrinsic clearance in human liver microsomes; format: ADME, Microsome
# [7] = Half life in mouse liver microsomes; format: ADME, Microsome
# [8] = Half life in human liver microsomes; format: ADME, Microsome
# Plasmodium falciparum [9] = test: microbe, parasite or virus in culture; conditions: D6
# Description: as §1
# Mus musculus [10] = test: Effect on survival of CD1 mice (Mus musculus) infected with Plasmodium berghei KBG173 at 600 mg/kg/day, perorally; format: functional, organism-based; design: route oral; conditions: route oral
# Mus musculus [11] = test: Effect on survival of CD1 mice (Mus musculus) infected with Plasmodium berghei KBG173 at 200 mg/kg/day, perorally; format: functional; conditions: route oral
# Mus musculus [12] = test: Effect on survival of CD1 mice (Mus musculus) infected with Plasmodium berghei KBG173 at 50 mg/kg/day, perorally; format: functional; conditions: route oral
# IGROV-1 = test: Antiproliferative activity against human IGROV1 cell line after 48 hrs; format: functional; conditions: for CC50: read-out: LC50 (the source's name)
# UO-31 = test: Antiproliferative activity against human UO31 cell line after 48 hrs; format: functional; conditions: for CC50: read-out: LC50 (the source's name)
# HOP-62 = test: Antiproliferative activity against human HOP62 cell line after 48 hrs; format: functional; conditions: for CC50: read-out: LC50 (the source's name)
# EKVX = test: Antiproliferative activity against human EKVX cell line after 48 hrs; format: functional
# COLO 205 = test: Antiproliferative activity against human COLO 205 cell line after 48 hrs; format: functional; conditions: for CC50: read-out: LC50 (the source's name)
# U-251 = test: Antiproliferative activity against human U251 cell line after 48 hrs; format: functional; conditions: U-251, 48 h
# ACHN = test: Antiproliferative activity against human ACHN cell line after 48 hrs; format: functional
# SR = test: Antiproliferative activity against human SR cell line after 48 hrs; format: functional
# HCT-15 = test: Antiproliferative activity against human HCT15 cell line after 48 hrs; format: functional; conditions: HCT-15, 48 h
# SNB-75 = test: Antiproliferative activity against human SNB75 cell line after 48 hrs; format: functional; conditions: SNB-75, 48 h
# SK-MEL-2 = test: Antiproliferative activity against human SK-MEL2 cell line after 48 hrs; format: functional; conditions: SK-MEL-2, 48 h
# UACC-62 = test: Antiproliferative activity against human UACC62 cell line after 48 hrs; format: functional; conditions: UACC-62, 48 h
# PC-3 = test: Antiproliferative activity against human PC3 cell line after 48 hrs; format: functional; conditions: PC-3, 48 h
# DU-145 = test: Antiproliferative activity against human DU145 cell line after 48 hrs; format: functional; conditions: DU-145, 48 h
# [13] = read-out: LC50 (the source's name)
compound,measurement,setting,value
CC(=O)O[C@H]1C[C@H]2[C@@H]([C@H](OC(C)=O)C[C@@H]3CC4(CC[C@@]32C)OOC2(CCC(C(=O)O)CC2)OO4)[C@@H]2CC[C@H]([C@H](C)CCC(=O)O)[C@@]12C (stereo in doubt; 6b),IC50,Plasmodium falciparum [1],> 0.3 µM
same,IC90,Plasmodium falciparum [1],> 0.3 µM
same,IC50,Plasmodium falciparum [2],> 0.3 µM
same,IC50,Plasmodium falciparum [3],> 0.3 µM
same,IC90,Plasmodium falciparum [4],> 0.3 µM
same,IC90,Plasmodium falciparum [5],> 0.3 µM
CC(=O)O[C@H]1C[C@H]2[C@@H]([C@H](OC(C)=O)C[C@@H]3CC4(CC[C@@]32C)OOC2(CCC(C(N)=O)CC2)OO4)[C@@H]2CC[C@H]([C@H](C)CCC(N)=O)[C@@]12C (stereo in doubt; 7),GI50,786-0,1.69 µM
same,LC50,786-0,8.08 µM
same,TGI,786-0,3.7 µM
same,GI50,LOX IMVI,1.85 µM
same,TGI,LOX IMVI,3.95 µM
same,CC50,LOX IMVI; [13],8.42 µM
same,CL,Mus musculus [6],1.59 mL/min/g
same,CL,Liver microsomes,3.4 mL/min/g
same,half-life,[7],38 min
same,half-life,[8],21 min
same,IC50,Plasmodium falciparum [1],0.011 µM
same,IC90,Plasmodium falciparum [1],0.0173 µM
same,IC50,Plasmodium falciparum [2],0.0171 µM
same,IC90,Plasmodium falciparum [2],0.0344 µM
same,IC50,Plasmodium falciparum [3],0.0118 µM
same,IC90,Plasmodium falciparum [3],0.0567 µM
CC(=O)O[C@H]1C[C@H]2[C@@H]([C@H](OC(C)=O)C[C@@H]3CC4(CC[C@@]32C)OOC2(CCC(C(=O)NCCN(C)C)CC2)OO4)[C@@H]2CC[C@H]([C@H](C)CCC(=O)NCCN(C)C)[C@@]12C (stereo in doubt; 12),IC50,Plasmodium falciparum [9],0.128 µM
same,IC90,Plasmodium falciparum [9],0.187 µM
same,IC50,Plasmodium falciparum [4],0.132 µM
same,IC90,Plasmodium falciparum [4],0.167 µM
same,IC50,Plasmodium falciparum [5],0.145 µM
same,IC90,Plasmodium falciparum [5],0.16 µM
CC(=O)O[C@H]1C[C@H]2[C@@H]([C@H](OC(C)=O)C[C@@H]3CC4(CC[C@@]32C)OOC2(CCC(C)CC2)OO4)[C@@H]2CC[C@H]([C@H](C)CCC(N)=O)[C@@]12C (stereo in doubt; 15),Activity,Mus musculus [10],29.2 days
same,Activity,Mus musculus [11],27.2 days
same,Activity,Mus musculus [12],21.4 days
same,GI50,IGROV-1,1.54 µM
same,TGI,IGROV-1,3.07 µM
same,CC50,IGROV-1,6.14 µM
same,TGI,UO-31,3.08 µM
same,CC50,UO-31,6.11 µM
same,GI50,HOP-62,1.47 µM
same,TGI,HOP-62,2.96 µM
same,CC50,HOP-62,5.96 µM
same,GI50,EKVX,1.01 µM
same,LC50,EKVX,5.49 µM
same,TGI,EKVX,2.35 µM
same,TGI,COLO 205,3.19 µM
same,CC50,COLO 205,6.52 µM
same,GI50,U-251,1.78 µM
same,TGI,U-251,3.78 µM
same,CC50,U-251; [13],8.06 µM
same,LC50,ACHN,1.8 µM and 8.35 µM
same,TGI,ACHN,3.88 µM
CC(=O)O[C@H]1C[C@H]2[C@@H]([C@H](OC(C)=O)C[C@@H]3CC4(CC[C@@]32C)OOC2(CCC(C)CC2)OO4)[C@@H]2CC[C@H]([C@H](C)CCC(=O)O)[C@@]12C (stereo in doubt; 16),Activity,Mus musculus [10],29 days
same,Activity,Mus musculus [11],24.8 days
same,Activity,Mus musculus [12],12.2 days
same,GI50,SR,1.63 µM
same,TGI,SR,3.82 µM
same,CC50,SR; [13],8.92 µM
same,IC50,Plasmodium falciparum [1],0.00153 µM
same,IC50,Plasmodium falciparum [2],0.00098 µM
CC(=O)O[C@H]1C[C@H]2[C@@H]([C@H](OC(C)=O)C[C@@H]3CC4(CC[C@@]32C)OOC2(CCC(C)CC2)OO4)[C@@H]2CC[C@H]([C@H](C)CCC(N)=O)[C@@]12C (stereo in doubt; 17),Activity,Mus musculus [10],30 days
same,Activity,Mus musculus [11],21.8 days
same,Activity,Mus musculus [12],21.2 days
same,GI50,IGROV-1,0.49 µM
same,TGI,"IGROV-1; Homo sapiens, IGROV-1, 48 h",1.84 µM
same,CC50,"IGROV-1; Homo sapiens, IGROV-1, 48 h",4.95 µM
same,GI50,"UO-31; Homo sapiens, UO-31, 48 h",1.26 µM
same,TGI,"UO-31; Homo sapiens, UO-31, 48 h",2.64 µM
same,CC50,"UO-31; Homo sapiens, UO-31, 48 h",5.5 µM
same,GI50,HCT-15,1.71 µM
same,TGI,HCT-15,3.43 µM
same,CC50,HCT-15; [13],6.86 µM
same,GI50,SNB-75,1.98 µM
same,TGI,SNB-75,4.05 µM
same,CC50,SNB-75; [13],8.28 µM
same,GI50,SK-MEL-2,1.71 µM
same,TGI,SK-MEL-2,3.2 µM
same,CC50,SK-MEL-2; [13],6.01 µM
same,GI50,UACC-62,1.85 µM
same,TGI,UACC-62,3.99 µM
same,CC50,UACC-62; [13],8.59 µM
same,GI50,PC-3,1.97 µM
same,TGI,PC-3,4.29 µM
same,CC50,PC-3; [13],9.31 µM
same,GI50,DU-145,1.82 µM
same,TGI,DU-145,3.26 µM
same,CC50,DU-145; [13],5.85 µM
same,GI50,"HOP-62; Homo sapiens, HOP-62, 48 h",1.07 µM
same,TGI,"HOP-62; Homo sapiens, HOP-62, 48 h",2.31 µM
same,CC50,"HOP-62; Homo sapiens, HOP-62, 48 h",4.98 µM
same,GI50,"EKVX; Homo sapiens, EKVX, 48 h",1.43 µM
same,LC50,"EKVX; Homo sapiens, EKVX, 48 h",5.41 µM
same,TGI,"EKVX; Homo sapiens, EKVX, 48 h",2.78 µM
same,GI50,"COLO 205; Homo sapiens, COLO 205, 48 h",1.69 µM
same,TGI,"COLO 205; Homo sapiens, COLO 205, 48 h",3.12 µM
same,CC50,"COLO 205; Homo sapiens, COLO 205, 48 h",5.76 µM
same,LC50,ACHN,5.73 µM
same,GI50,"ACHN; Homo sapiens, ACHN, 48 h",1.5 µM
same,TGI,"ACHN; Homo sapiens, ACHN, 48 h",2.93 µM
same,IC50,Plasmodium falciparum [1],0.02 µM
same,IC50,Plasmodium falciparum [2],0.0141 µM
CC(=O)O[C@H]1C[C@H]2[C@@H]([C@H](OC(C)=O)C[C@@H]3CC4(CC[C@@]32C)OOC2(CCC(C)CC2)OO4)[C@@H]2CC[C@H]([C@H](C)CCC(=O)O)[C@@]12C (stereo in doubt; 18),Activity,Mus musculus [10],20 days
same,Activity,Mus musculus [11],22.6 days
same,Activity,Mus musculus [12],10.2 days
same,GI50,"IGROV-1; Homo sapiens, IGROV-1, 48 h",1.4 µM
same,TGI,"IGROV-1; Homo sapiens, IGROV-1, 48 h",2.76 µM
same,CC50,"IGROV-1; Homo sapiens, IGROV-1, 48 h",5.43 µM
same,GI50,"UO-31; Homo sapiens, UO-31, 48 h",1.5 µM
same,TGI,"UO-31; Homo sapiens, UO-31, 48 h",3 µM
same,CC50,"UO-31; Homo sapiens, UO-31, 48 h",6.02 µM
same,GI50,"HOP-62; Homo sapiens, HOP-62, 48 h",1.64 µM
same,TGI,"HOP-62; Homo sapiens, HOP-62, 48 h",3.49 µM
same,CC50,"HOP-62; Homo sapiens, HOP-62, 48 h",7.4 µM
same,GI50,"EKVX; Homo sapiens, EKVX, 48 h",1.45 µM
same,LC50,"EKVX; Homo sapiens, EKVX, 48 h",5.78 µM
same,TGI,"EKVX; Homo sapiens, EKVX, 48 h",2.9 µM
same,GI50,"COLO 205; Homo sapiens, COLO 205, 48 h",1.98 µM
same,TGI,"COLO 205; Homo sapiens, COLO 205, 48 h",4.4 µM
same,CC50,"COLO 205; Homo sapiens, COLO 205, 48 h",9.78 µM
same,IC50,Plasmodium falciparum [1],0.0311 µM
same,IC50,Plasmodium falciparum [2],0.0177 µM
C[C@@H]1CC[C@H]2[C@@H](C)C(=O)O[C@@H]3O[C@@]4(C)CC[C@@H]1[C@]32OO4 [ARTEMISININ],IC50,Plasmodium falciparum [9],0.009 µM
same,IC90,Plasmodium falciparum [9],0.0128 µM
same,IC50,Plasmodium falciparum [4],0.0067 µM
same,IC90,Plasmodium falciparum [4],0.0115 µM
same,IC50,Plasmodium falciparum [5],0.013 µM
same,IC90,Plasmodium falciparum [5],0.0174 µM
O[C@@H](c1cc(C(F)(F)F)nc2c(C(F)(F)F)cccc12)[C@H]1CCCCN1 [MEFLOQUINE],IC50,Plasmodium falciparum [9],0.0105 µM
same,IC90,Plasmodium falciparum [9],0.0217 µM
same,IC50,Plasmodium falciparum [4],0.0031 µM
same,IC90,Plasmodium falciparum [4],0.0084 µM
same,IC50,Plasmodium falciparum [5],0.0164 µM
same,IC90,Plasmodium falciparum [5],0.0657 µM
